Measurements: PMC7155171, “Probing the Open Global Health Chemical Diversity Library for Multistage-Active Starting Points for Next-Generation Antimalarials” (ACS Infectious Diseases, 2020)
Like-named read-outs stand apart in the source and are kept apart here.

Experiments:
[1] = tested on: P. falciparum Dd2 (PfLuc) line expressing firefly luciferase, asexual blood stage; assay: microbe, parasite or virus in culture; type: cell-based, Plasmodium falciparum; conditions: Plasmodium falciparum
[2] = tested on: P. falciparum Dd2; assay: SYBR green I asexual blood stage proliferation assay (96 h); type: cell-based, Plasmodium falciparum; conditions: for IC50 / Emax: Plasmodium falciparum
[3] = DD2, read-out: CDD P. falciparum Luciferase ABS 11-pt Reconfirmation Dose Response (48hr): IC50 (μM), 11-pt dose response, 48hr
[4] = DD2, 8-pt dose response, 96hr, read-out: CDD P. falciparum Luciferase ABS 8-pt Reconfirmation Dose Response (96hr): IC50
[5] = DD2, 8-pt dose response, 96hr, read-out: CDD P. falciparum Luciferase ABS 8-pt Reconfirmation Dose Response (96hr): Maximum inhibition (%)
[6] = DD2, 11-pt dose response, 48hr, read-out: CDD P. falciparum Luciferase ABS 11-pt Reconfirmation Dose Response (48hr): Maximum inhibition (%)
[7] = DD2, 11-pt dose response, 96hr, read-out: CDD P. falciparum Luciferase ABS 11-pt Reconfirmation Dose Response (96hr): IC50
[8] = DD2, 11-pt dose response, 96hr, read-out: CDD P. falciparum Luciferase ABS 11-pt Reconfirmation Dose Response (96hr): Maximum inhibition (%)
[9] = DD2, Sybr Green I, 11-pt dose response, 96hr, read-out: CDD P. falciparum Sybr Green I ABS 11-pt Reconfirmation Dose Response (96hr): IC50
[10] = DD2, Sybr Green I, 11-pt dose response, 96hr, read-out: CDD P. falciparum Sybr Green I ABS 11-pt Reconfirmation Dose Response (96hr): Maximum inhibition (%)
[11] = DD2, read-out: P. falciparum Luciferase ABS 11-pt Reconfirmation Dose Response (48hr): IC50, 11-pt dose response, 48hr
[12] = DD2, 8-pt dose response, 96hr, read-out: P. falciparum Luciferase ABS 8-pt Reconfirmation Dose Response (96hr): IC50
[13] = DD2, 8-pt dose response, 96hr, read-out: P. falciparum Luciferase ABS 8-pt Reconfirmation Dose Response (96hr): Maximum inhibition (%)
[14] = DD2, 11-pt dose response, 48hr, read-out: P. falciparum Luciferase ABS 11-pt Reconfirmation Dose Response (48hr): Maximum inhibition (%)
[15] = DD2, 11-pt dose response, 96hr, read-out: P. falciparum Luciferase ABS 11-pt Reconfirmation Dose Response (96hr): IC50
[16] = DD2, 11-pt dose response, 96hr, read-out: P. falciparum Luciferase ABS 11-pt Reconfirmation Dose Response (96hr): Maximum inhibition (%)
[17] = DD2, 11-pt dose response, 96hr, read-out: P. falciparum Sybr Green I ABS 11-pt Reconfirmation Dose Response (96hr): IC50
[18] = DD2, 11-pt dose response, 96hr, read-out: P. falciparum Sybr Green I ABS 11-pt Reconfirmation Dose Response (96hr): Maximum inhibition (%)
[19] = 96 h incubation, Dd2 luciferase, read-out: 96 hour Pfluc IC50

Row | Compound | IC50 [1, 3] [µM] | IC50 [1, 4] [µM] | Emax [1, 5] [%] | Emax [1, 6] [%] | IC50 [1, 7] [µM] | Emax [1, 8] [%] | IC50 [2, 9] [nM] | Emax [2, 10] [%] | further results
1 | CN(C)c1nc2c(c(NCc3cc(O)ncn3)n1)CCCC2 [DDD01252975] | 3.75 | 0.59 | 94 | 96 | 2.11 | 99.7 | 1820 | 99.1 | –
2 | Cc1cc(F)ccc1N1CCC(N2C[C@@H](CN(C)C)[C@@H](CO)C2)CC1 [DDD01253692] | > 4.16 | 0.37 | 94.9 | 55.2 | 0.396 | 100 | 2030 | 90.3 | –
3 | c1ccc(C2CN(C3CC3)CC3(CCN(Cc4cscn4)CC3)C2)cc1 (centres unmarked) [DDD01253863] | – | – | – | – | – | – | – | – | IC50 [1, 11]: 4.6 µM; IC50 [1, 12]: 1.16 µM; Emax [1, 13]: 78.8%; Emax [1, 14]: 85%; IC50 [1, 15]: 3.45 µM; Emax [1, 16]: 96.3%; IC50 [2, 17]: > 4160 nM
4 | OC(CNCc1ccccc1C(F)(F)F)c1ccccc1 (centres unmarked) [DDD01254021] | 4.82 | 0.87 | 91.4 | 84.3 | 1.76 | 97.4 | 3660 | 87.9 | –
5 | NCC1Cc2cc(-c3nccc(N4CCC(O)CC4)n3)cc(F)c2O1 (centres unmarked) [DDD01254054] | 2.43 | 0.59 | 94.6 | 91.4 | 1.87 | 98.9 | 2490 | 92 | –
6 | COCCN(C)Cc1cc(Cl)ccc1OCC(O)CN1CCCCCC1 (centres unmarked) [DDD01254091] | – | – | – | – | – | – | – | – | IC50 [1, 11]: 3 µM; IC50 [1, 12]: 1.11 µM; Emax [1, 13]: 94.7%; Emax [1, 14]: 98.3%; IC50 [1, 15]: > 1.39 µM; Emax [1, 16]: 101%; IC50 [2, 17]: 3770 nM; Emax [2, 18]: 91.7%
7 | Nc1nc2c(c(N3CCCC(c4nnc5ccccn45)C3)n1)CCNC2 (centres unmarked) [DDD01254485] | > 12.5 | 0.18 | 90.3 | 46.1 | 0.312 | 95.2 | > 12500 | 52.8 | –
8 | CNc1nc(C)cc(NC2CCCN(C3Cc4ccccc4C3)C2)n1 (centres unmarked) [DDD01254555] | 2.19 | 1.11 | 92.9 | 82.6 | 1.07 | 100 | 1020 | 87 | –
9 | Cc1ccccc1N1CCCN(CC2(O)CCCNC2)CC1 (centres unmarked) [DDD01254676] | 3.64 | 0.54 | 90.4 | 89.1 | 1.37 | 97.2 | 1590 | 91.2 | –
10 | CN(Cc1ncc[nH]1)c1nc(-c2ccccn2)nc2c1CCNCC2 [DDD01254777, CN(Cc1ncc[nH]1)c1nc(nc2CCNCCc12)-c1ccccn1] | – | – | – | – | – | – | – | – | IC50 ([1]; DD2, read-out: CDD P. falciparum Luc 11pt dose response (96hr, n=2): IC50 (μM), 96hr, 11-point, n=2): 0.214 µM; IC50 ([1]; DD2, read-out: CDD P. falciparum Luciferase 11pt dose response (48hr, n=2): IC50 (μM), 48hr, 11-point, n=2): 10.2 µM; Emax ([1]; DD2, 48hr, 11-point, read-out: CDD P. falciparum Luciferase ABS 11-pt Reconfirmation Dose Response (48hr): Maximum inhibition (%)): 65.1%; Emax ([1]; DD2, 96hr, 11-point, read-out: CDD P. falciparum Luciferase ABS 11-pt Reconfirmation Dose Response (96hr): Maximum inhibition (%)): 94.2%; IC50 [1, 19]: 0.21 µM; CDD P. falciparum Sybr Green I ABS Dd2 Dose Response: Maximum measured (%) ([2]; Dd2, 96 h): 65.7%; IC50 ([2]; DD2, 96 h, read-out: CDD P. falciparum Sybr Green I ABS Dd2 Dose Response: IC50): > 4160 nM
11 | CN1CCC(C2CCN(Cc3cccc(-n4cccn4)c3)CC2)C1 (centres unmarked) [DDD01255349] | 0.818 | 0.65 | 93.2 | 97.1 | 0.46 | 100 | 2050 | 94.8 | –
12 | Clc1cccc2c3c([nH]c12)CCN(Cc1cc2n(n1)CCCNC2)C3 [DDD01255494] | – | – | – | – | – | – | – | – | IC50 [1, 11]: 3.79 µM; IC50 [1, 12]: 1.21 µM; Emax [1, 13]: 91.2%; IC50 [1, 15]: 1.07 µM; Emax [1, 16]: 99.6%; IC50 [2, 17]: 3520 nM; Emax [2, 18]: 91%
13 | COc1ccc(-c2ccccc2CCN)c(OC)c1OC [DDD01256178] | 3.3 | 1 | 87.9 | 83.2 | 2.11 | 98.8 | 3030 | 89.5 | –
14 | CC(C)(C)c1nccc(C2(c3ccccc3Cl)CCNCC2)n1 [DDD01256872] | – | – | – | – | – | – | – | – | IC50 [1, 11]: 5.56 µM; IC50 [1, 12]: 2.03 µM; Emax [1, 13]: 78.8%; Emax [1, 14]: 91.9%; IC50 [1, 15]: 1.22 µM; Emax [1, 16]: 98.3%; IC50 [2, 17]: 1710 nM; Emax [2, 18]: 74.4%
15 | CO[C@H]1CN(C(C)C)C[C@@H]1NC(=O)c1cc(-c2ccccc2O)n[nH]1 [DDD01257008] | – | – | – | – | – | – | – | – | IC50 [1, 11]: 7.18 µM; IC50 [1, 12]: 1.29 µM; Emax [1, 13]: 94.7%; Emax [1, 14]: 87.1%; IC50 [1, 15]: 3.21 µM; Emax [1, 16]: 97.2%; IC50 [2, 17]: 4520 nM; Emax [2, 18]: 94.2%
16 | CC(C)n1ccnc1C1CCCN(c2ccnc3ccccc23)C1 (centres unmarked) [DDD01257414] | 2.09 | 0.8 | 94.6 | 95.8 | 1.64 | 99.7 | 1940 | 98.5 | –
17 | CC(C)N1CCC(NCc2cccnc2N(C)Cc2ccccc2)CC1 [DDD01257477] | > 12.5 | 0.45 | 89.2 | 61.1 | 3.84 | 87.8 | 163 | – | –
18 | Cc1nc[nH]c1CN(C)CC1CCCN(CCc2ccc(Cl)cc2)C1 (centres unmarked) [DDD01257555] | 1.62 | 0.65 | 93.5 | 99.6 | 0.463 | 99.9 | 963 | 98.8 | –
19 | Clc1ccccc1C1(c2ccnc(CC3CC3)n2)CCNCC1 [DDD01257764] | 3.74 | 0.27 | 92.2 | 90.6 | 0.581 | 98 | 422 | 70.6 | IC50 [1, 19]: 0.58 µM
